According to patent US20060160851A1, “Substituted piperidine carbamates” (Novo Nordisk A/S, priority 2003, published 2006):

Molecular target: T1, hormone sensitive lipase (Homo sapiens, UniProt Q05469)
T1 construct: made in house
T1 sequence (Q05469 1-1076): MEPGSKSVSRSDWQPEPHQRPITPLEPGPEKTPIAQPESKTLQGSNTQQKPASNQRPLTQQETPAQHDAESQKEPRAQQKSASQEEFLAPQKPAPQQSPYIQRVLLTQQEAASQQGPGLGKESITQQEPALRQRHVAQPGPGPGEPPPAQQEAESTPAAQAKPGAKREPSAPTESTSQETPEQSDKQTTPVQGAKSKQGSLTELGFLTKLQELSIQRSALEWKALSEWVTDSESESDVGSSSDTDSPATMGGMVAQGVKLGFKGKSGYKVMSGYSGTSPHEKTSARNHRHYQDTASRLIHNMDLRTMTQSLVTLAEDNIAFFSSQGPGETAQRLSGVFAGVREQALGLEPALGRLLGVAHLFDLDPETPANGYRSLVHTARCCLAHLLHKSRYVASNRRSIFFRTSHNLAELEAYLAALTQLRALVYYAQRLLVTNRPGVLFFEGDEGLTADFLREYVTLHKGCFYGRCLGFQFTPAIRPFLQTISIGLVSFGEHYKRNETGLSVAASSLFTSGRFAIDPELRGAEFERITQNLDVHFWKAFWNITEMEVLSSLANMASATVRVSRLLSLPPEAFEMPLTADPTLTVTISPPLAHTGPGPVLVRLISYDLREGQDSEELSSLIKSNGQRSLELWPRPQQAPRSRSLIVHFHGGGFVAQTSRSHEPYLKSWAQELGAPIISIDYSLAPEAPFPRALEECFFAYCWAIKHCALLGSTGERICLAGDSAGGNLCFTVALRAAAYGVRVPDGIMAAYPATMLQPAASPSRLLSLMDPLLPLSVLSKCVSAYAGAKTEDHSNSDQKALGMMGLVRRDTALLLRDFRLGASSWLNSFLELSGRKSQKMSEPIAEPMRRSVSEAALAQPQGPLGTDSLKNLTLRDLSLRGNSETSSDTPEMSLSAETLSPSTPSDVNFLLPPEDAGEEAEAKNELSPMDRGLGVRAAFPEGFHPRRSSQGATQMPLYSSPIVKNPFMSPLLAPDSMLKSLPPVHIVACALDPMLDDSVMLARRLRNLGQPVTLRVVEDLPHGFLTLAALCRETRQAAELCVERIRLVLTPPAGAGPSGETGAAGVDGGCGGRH
Assay: Assay 3190.1: percent inhibition of hormone sensitive lipase by compound at 10 μM (fluorochrome-labeled triacylglyceride emulsion, HSL_FL)
Format: biochemical
Settings: 10 μM sample concentration; % activity relative to non-inhibited sample (no compound); 30 min preincubation at 25° C., 120 min incubation at 37° C.; read-out: Test 3190.1 HSL_FL % ACTIVITY
Source text: The Hormone-sensitive lipase was provided by Dr. Cecilia Holm, from Lund University Sweden or produced and purified by Novo Nordisk (NN) using the reagents and protocols used by Dr. Holm. The substrates used are: ^3H-labeled triolein (TO) from Amersham, Buckinghamshire, U.K. cat No. TRA191; 5-20 Ci/mmol dissolved in toluene, triolein (Sigma, Cat. No. T-1740), fluorochrome-labeled triacylglyceride (cis-octadec-9-enoic acid 2-[12-(7-nitrobenzo[1,2,5]oxadiazol-4-ylamino)dodecanoyloxy]-1-cis-octadec-9-enoyloxymethyl-ethyl ester) prepared by Novo Nordisk (NN) by conventional methods, and 1,3-(di[^3H]-stearin), 2-(PEG-Biotin)glycerol prepared in collaboration with Amersham Pharmacia Biotech, UK and described in WO 01/073442. Phosphatidyl choline (PC) and phosphatidyl inositol (PI) are from Sigma (St Luis Mo. cat. Nos. P-3556 and P-5954 respectively). All other reagents are of commercial grade and obtained from various commercial sources.
3190.1: Assay for determination of percent inhibition of hormone sensitive lipase by compound at 10 μM sample concentration.
A lipid emulsion with fluorochrome-labeled triacylglyceride and phospholipid is used as substrate with a standard concentration of highly purified HSL (12 μg/mL initial concentration corresponding to 600 ng/mL final concentration). BSA is added as product acceptor receptor. The transfer of the fluorochrome from the lipid phase to the water (BSA) phase changes the fluorescent properties of the fluorochrome. The changes can be monitored on a fluorimeter with an excitation wavelength of 450 nm and an emission wavelength of 545 nm.
Compound and HSL (20 μL compound, 10 μL enzyme and 70 μL PED-BSA buffer) is pre-incubated for 30 min at 25° C. before addition of substrate (100 μL). Amount of formed product is measured after 120 min incubation at 37° C.
Results are given as percent activity relative to a non-inhibited sample (no compound).

O=C(O)Cc1ccc(OC2CCN(C(=O)Oc3ccc(C(=O)NCCc4cccs4)cc3)CC2)cc1 [Example 91, 4-(4-Carboxymethyl-phenoxy)-piperidine-1-carboxylic acid 4-(2-thiophen-2-yl-ethylcarbamoyl)-phenyl ester]
activity at 10 µM: 10%

O=C(O)Cc1ccc(OC2CCN(C(=O)Oc3ccc(CCOc4ccc(-n5cnnc5)cc4)cc3)CC2)cc1 [Example 97, 4-(4-Carboxymethyl-phenoxy)-piperidine-1-carboxylic acid 4-[2-(4-[1,2,4]triazol-4-yl-phenoxy)-ethyl]-phenyl ester]
activity at 10 µM: 15%

O=C(O)Cc1ccc(OC2CCN(C(=O)Oc3ccc(Cc4ncc(C(F)(F)F)cc4Cl)cc3)CC2)cc1 [Example 102, 4-(4-Carboxymethyl-phenoxy)-piperidine-1-carboxylic acid 4-(3-chloro-5-trifluoromethyl-pyridin-2-ylmethyl)-phenyl ester]
activity at 10 µM: 11%

O=C(O)Cc1ccc(OC2CCN(C(=O)Oc3ccc(Oc4ccc(C(F)(F)F)cc4)cc3)CC2)cc1 [Example 103, 4-(4-Carboxymethyl-phenoxy)-piperidine-1-carboxylic acid 4-(4-trifluoromethyl-phenoxy)-phenyl ester]
activity at 10 µM: 6%

CC(C)(C)CCNC(=O)c1ccc(OC(=O)N2CCC(Oc3ccc(C(=O)O)cc3)CC2)cc1 [Example 105, 4-(4-Carboxy-phenoxy)-piperidine-1-carboxylic acid 4-(3,3-dimethyl-butylcarbamoyl)-phenyl ester]
activity at 10 µM: 11%

O=C(O)Cc1cccc(OC2CCN(C(=O)Oc3ccc(Oc4ccc(C(F)(F)F)cn4)cc3)CC2)c1 [Example 110, 4-(3-Carboxymethyl-phenoxy)-piperidine-1-carboxylic acid 4-(5-trifluoromethyl-pyridin-2-yloxy)-phenyl ester]
activity at 10 µM: 20%

O=C(O)CCc1cccc(OC2CCN(C(=O)Oc3ccc(Oc4ccc(C(F)(F)F)cn4)cc3)CC2)c1 [Example 112, 4-[3-(2-Carboxy-ethyl)-phenoxy]-piperidine-1-carboxylic acid 4-(5-trifluoromethyl-pyridin-2-yloxy)-phenyl ester]
activity at 10 µM: 14%

O=C(O)Cc1ccc(OC2CCN(C(=O)Oc3ccc(Oc4ccc(Cl)cn4)cc3)CC2)cc1 [Example 117, 4-(4-Carboxymethyl-phenoxy)-piperidine-1-carboxylic acid 4-(5-chloro-pyridin-2-yloxy)-phenyl ester]
activity at 10 µM: 8%
